Calls of active or inactive are those of the source. The calls are words filed in the database; no cut-off is given here.
Tests used:
[1] = Clearance in Sprague-Dawley rat at 1 mg/kg, iv administered as single dose by LC/MS/MS analysis; format: ADME, organism-based; set-up: dose 1 mg/kg, route intravenous; conditions: in vivo
[2] = Volume of distribution at steady state in Sprague-Dawley rat at 1 mg/kg, iv administered as single dose by LC/MS/MS analysis; format: ADME, organism-based; set-up: dose 1 mg/kg, route intravenous; conditions: in vivo, read-out: Vdss
[3] = Cmax in Sprague-Dawley rat at 3 mg/kg, po administered as single dose by LC/MS/MS analysis; format: ADME, organism-based; set-up: dose 3 mg/kg, route oral; conditions: in vivo
[4] = Tmax in Sprague-Dawley rat at 3 mg/kg, po administered as single dose by LC/MS/MS analysis; format: ADME, organism-based; set-up: dose 3 mg/kg, route oral; conditions: in vivo
[5] = Half life in Sprague-Dawley rat at 3 mg/kg, po administered as single dose by LC/MS/MS analysis; format: ADME, organism-based; set-up: dose 3 mg/kg, route oral; conditions: in vivo
[6] = AUC in Sprague-Dawley rat at 3 mg/kg, po administered as single dose by LC/MS/MS analysis; format: ADME, organism-based, Plasma; set-up: dose 3 mg/kg, route oral; conditions: Sprague-Dawley, plasma
[7] = Oral bioavailability in Sprague-Dawley rat at 3 mg/kg administered as single dose by LC/MS/MS analysis; format: ADME, organism-based; conditions: Sprague-Dawley, in vivo
[8] = Ratio of drug level in brain to plasma in Sprague-Dawley rat at 3 mg/kg, po administered as single dose; format: ADME, organism-based; set-up: dose 3 mg/kg, route oral; conditions: read-out: BPR
[9] = test system: Rattus norvegicus; assay: Effect on serotonin release in Sprague-Dawley rat cortex at 10 mg/kg, po after 40 mins microdialysis assay; format: functional, organism-based; set-up: dose 10 mg/kg
[10] = test system: Rattus norvegicus; assay: Inhibition of 8-OH-DPAT-induced decrease in extracellular serotonin level Sprague-Dawley rat cortex at 10 mg/kg, po administered 30 mins before 8-OH-DPAT challenge; format: functional, organism-based; set-up: dose 10 mg/kg
[11] = in vitro; conditions: rat, liver microsomes
Description: Half life in rat liver microsomes at 1 uM after 20 mins

[12] = in vitro; conditions: human, liver microsomes
Description: Half life in human liver microsomes at 1 uM after 20 mins

[13] = biological target: T1, 5-hydroxytryptamine receptor 1A (Homo sapiens, UniProt P08908)
T1 sequence (P08908 whole entry): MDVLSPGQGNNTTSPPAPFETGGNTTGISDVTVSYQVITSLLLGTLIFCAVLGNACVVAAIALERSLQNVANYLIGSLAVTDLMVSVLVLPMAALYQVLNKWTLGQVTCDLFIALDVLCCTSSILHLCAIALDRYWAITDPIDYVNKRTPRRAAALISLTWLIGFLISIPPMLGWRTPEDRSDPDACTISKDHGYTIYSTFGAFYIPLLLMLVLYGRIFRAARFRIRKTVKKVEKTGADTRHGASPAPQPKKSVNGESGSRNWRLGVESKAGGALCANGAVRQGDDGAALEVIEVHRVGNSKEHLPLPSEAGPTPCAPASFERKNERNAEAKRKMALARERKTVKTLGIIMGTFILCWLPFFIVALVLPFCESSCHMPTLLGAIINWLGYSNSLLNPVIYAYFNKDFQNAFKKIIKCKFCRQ

[14] = biological target: T1, 5-hydroxytryptamine receptor 1A; assay: biochemical
Description: Displacement of [3H]8-OH-DPAT from human 5HT1A receptor expressed in CHO cells

[15] = test system: Plasma; assay: Drug level in Sprague-Dawley rat plasma at 3 mg/kg, po administered as single dose by LC/MS/MS analysis; format: ADME, organism-based; set-up: dose 3 mg/kg, route oral; conditions: in vivo

Compound | clearance [1] | Vd [2] | Cmax [3] | Tmax [4] | half-life [5] | AUC [6] | bioavailability [7] | Kp [8] | Activity [9] | Activity [10] | half-life at 20 min, 1 µM [11] | half-life at 20 min, 1 µM [12] | IC50 [13] | Ki [14] | concentration [15]
COc1cc(N2CCN(C3CCN(c4ccc(F)c5c(OC)cc(C(F)(F)F)nc45)CC3)CC2)c2ncccc2c1 | 9 mL/min/kg | 2.5 L/kg | 417 ng/mL | 120 min | 288 min | 3760 ng·h/mL | 60% | 0.2 | inactive | Active | 12 min | 15 min | – | – | –
COc1cc(N2CCN(C3CCN(c4cccc5c(OC)cc(C(F)(F)F)nc45)CC3)CC2)c2ncccc2c1 | – | – | – | – | – | – | – | – | – | – | 4 min | 13 min | 30 nM | 2.1 nM | –
COc1cc(N2CCN(C3CCN(c4cccc5c(C)ccnc45)CC3)CC2)c2ncccc2c1 | – | – | – | – | – | – | – | – | – | – | 2 min | 2 min | 1.4 nM | 0.61 nM | –
COc1cc(N2CCN(C3CCN(c4cccc5cc(F)cnc45)CC3)CC2)c2ncccc2c1 | – | – | – | – | – | – | – | – | – | – | 2 min | 2 min | 5.6 nM | 0.79 nM | –
COc1cc(N2CCN(C3CCN(c4ccc(F)c5cc(C(F)(F)F)cnc45)CC3)CC2)c2ncccc2c1 | – | – | – | – | – | – | – | – | – | – | 9 min | 27 min | 15 nM | 0.87 nM | –
COc1cc(N2CCN(C3CCN(c4cccc5ccc(C)nc45)CC3)CC2)c2ncccc2c1 | – | – | – | – | – | – | – | – | – | – | < 1 min | 3 min | 47 nM | 0.54 nM | –
COc1cc(N2CCN(C3CCN(c4cccc5cc(C(F)(F)F)cnc45)CC3)CC2)c2ncccc2c1 | – | – | – | – | – | – | – | – | – | – | 4 min | 10 min | 30 nM | – | –
COc1cc(N2CCN(C3CCN(c4cccc5cccnc45)CC3)CC2)c2ncccc2c1 | 38.7 mL/min/kg | 2.8 L/kg | 130 ng/mL | 60 min | 72 min | 360 ng·h/mL | 27% | 2.8 | – | – | 2 min | 3 min | – | – | 200 nM
COc1cc(N2CCN(C3CCN(c4ccc(F)c5ccc(C(F)(F)F)nc45)CC3)CC2)c2ncccc2c1 | – | – | – | – | – | – | – | – | – | – | 3 min | 3 min | 7 nM | 3.6 nM | –
